Measured values published in ChEMBL document CHEMBL1141546, “Diamine derivatives containing imidazolidinylidene propanedinitrile as a new class of histamine H3 receptor antagonists. Part I” (Bioorg Med Chem Lett, 2008).

Key:
[1] = target: Histamine H3 receptor (Rattus norvegicus) (UniProt Q9QYN8); experiment: Displacement of [3H]N-alpha-methylhistamine from histamine H3 receptor in rat striatal membrane at 1 uM; format: cell membranes; details: Striatum
Histamine H3 receptor [2] = target: T1, Histamine H3 receptor (Homo sapiens, UniProt Q9Y5N1); experiment: Displacement of [3H]N-alpha-methylhistamine from human cloned histamine H3 receptor expressed in monkey COS7 cells at 1 uM; format: cell-based; details: COS-7
T1 sequence (Q9Y5N1 whole entry): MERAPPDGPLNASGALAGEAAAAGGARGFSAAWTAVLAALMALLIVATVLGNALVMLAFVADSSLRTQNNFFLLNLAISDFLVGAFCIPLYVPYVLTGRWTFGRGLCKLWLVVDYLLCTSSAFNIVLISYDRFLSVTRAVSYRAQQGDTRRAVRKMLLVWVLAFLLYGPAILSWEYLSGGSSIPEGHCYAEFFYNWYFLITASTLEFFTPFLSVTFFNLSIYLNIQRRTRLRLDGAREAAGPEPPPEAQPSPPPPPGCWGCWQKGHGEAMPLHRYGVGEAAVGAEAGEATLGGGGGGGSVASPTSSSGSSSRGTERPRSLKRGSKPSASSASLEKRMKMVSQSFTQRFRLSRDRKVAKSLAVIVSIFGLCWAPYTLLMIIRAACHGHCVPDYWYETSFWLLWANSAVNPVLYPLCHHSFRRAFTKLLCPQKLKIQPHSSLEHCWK

[3] = target: Histamine H3 receptor (Rattus norvegicus) (UniProt Q9QYN8); experiment: Displacement of [3H]N-alpha-methylhistamine from histamine H3 receptor in rat striatal membrane at 0.1 uM; format: cell membranes; details: Striatum
Histamine H3 receptor [4] = target: T1, Histamine H3 receptor; experiment: Displacement of [3H]N-alpha-methylhistamine from human cloned histamine H3 receptor expressed in monkey COS7 cells at 0.1 uM; format: cell-based; details: COS-7
[5] = target: Histamine H1 receptor (Homo sapiens) (UniProt P35367); experiment: Displacement of [3H]pyrilamine from human H1 receptor expressed in monkey COS7 cells at 1 uM; format: cell-based; details: COS-7
Chain of Histamine H1 receptor (Homo sapiens) (P35367 whole entry): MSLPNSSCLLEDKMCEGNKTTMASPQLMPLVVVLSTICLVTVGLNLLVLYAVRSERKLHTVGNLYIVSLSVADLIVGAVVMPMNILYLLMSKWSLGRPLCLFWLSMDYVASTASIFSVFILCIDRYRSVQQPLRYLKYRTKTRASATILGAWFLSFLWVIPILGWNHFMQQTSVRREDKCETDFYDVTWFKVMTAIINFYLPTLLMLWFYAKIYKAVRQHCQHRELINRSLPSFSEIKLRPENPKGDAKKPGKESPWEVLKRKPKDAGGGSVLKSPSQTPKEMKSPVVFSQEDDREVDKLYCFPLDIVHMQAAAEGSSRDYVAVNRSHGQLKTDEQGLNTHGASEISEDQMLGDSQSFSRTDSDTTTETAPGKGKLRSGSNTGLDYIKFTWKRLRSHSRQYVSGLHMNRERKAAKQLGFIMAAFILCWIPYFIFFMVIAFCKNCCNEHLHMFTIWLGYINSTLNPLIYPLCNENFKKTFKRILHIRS

[6] = target: Histamine H4 receptor (Homo sapiens) (UniProt Q9H3N8); experiment: Displacement of [3H]histamine from human H4 receptor expressed in monkey COS7 cells at 1 uM; format: cell-based; details: COS-7
[7] = target: Histamine H1 receptor (Homo sapiens) (UniProt P35367); experiment: Displacement of [3H]pyrilamine from human H1 receptor expressed in monkey COS7 cells at 10 uM; format: cell-based; details: COS-7
Histamine H3 receptor [8] = target: T1, Histamine H3 receptor; experiment: Displacement of [3H]N-alpha-methylhistamine from human cloned histamine H3 receptor expressed in monkey COS7 cells; format: cell-based, COS-7
[9] = target: Histamine H2 receptor (Homo sapiens) (UniProt P25021); experiment: Displacement of [3H]tiotidine from human H2 receptor expressed in monkey COS7 cells at 10 uM; format: cell-based; details: COS-7
Chain of Histamine H2 receptor (Homo sapiens) (P25021 whole entry): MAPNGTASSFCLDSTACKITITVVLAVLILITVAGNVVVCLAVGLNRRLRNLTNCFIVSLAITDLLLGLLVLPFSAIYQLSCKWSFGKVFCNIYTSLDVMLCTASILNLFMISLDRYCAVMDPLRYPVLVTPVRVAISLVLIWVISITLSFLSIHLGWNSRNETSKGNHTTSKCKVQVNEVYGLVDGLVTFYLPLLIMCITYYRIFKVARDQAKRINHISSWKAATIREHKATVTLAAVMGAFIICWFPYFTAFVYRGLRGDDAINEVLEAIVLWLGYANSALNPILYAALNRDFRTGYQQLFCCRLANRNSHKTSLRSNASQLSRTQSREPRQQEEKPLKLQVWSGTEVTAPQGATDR

[10] = target: Histamine H4 receptor (Homo sapiens) (UniProt Q9H3N8); experiment: Displacement of [3H]histamine from human H4 receptor expressed in monkey COS7 cells at 10 uM; format: cell-based; details: COS-7
Histamine H3 receptor [11] = target: T2, Histamine H3 receptor (Rattus norvegicus, UniProt Q9QYN8); experiment: Antagonist activity at histamine H3 receptor in rat forebrain assessed as inhibition of [3H]histamine release from synaptosomes; format: functional, subcellular, Brain
T2 sequence (Q9QYN8 whole entry): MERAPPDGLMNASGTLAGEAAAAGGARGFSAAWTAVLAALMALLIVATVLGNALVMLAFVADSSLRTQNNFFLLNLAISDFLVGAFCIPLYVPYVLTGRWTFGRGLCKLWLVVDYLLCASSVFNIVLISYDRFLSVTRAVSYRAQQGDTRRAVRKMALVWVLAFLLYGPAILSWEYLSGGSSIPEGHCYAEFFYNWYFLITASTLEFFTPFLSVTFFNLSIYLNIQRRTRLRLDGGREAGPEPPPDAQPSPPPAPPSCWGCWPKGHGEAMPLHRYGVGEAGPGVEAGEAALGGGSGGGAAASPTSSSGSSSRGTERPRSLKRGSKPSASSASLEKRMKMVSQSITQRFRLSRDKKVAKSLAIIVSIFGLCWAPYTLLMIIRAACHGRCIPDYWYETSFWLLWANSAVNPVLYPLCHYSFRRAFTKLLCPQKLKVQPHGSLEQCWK

Histamine H3 receptor [12] = target: T2, Histamine H3 receptor; experiment: Displacement of [3H]N-alpha-methylhistamine from histamine H3 receptor in rat striatal membrane; format: cell membranes, Striatum
[13] = target: Histamine H2 receptor (Homo sapiens) (UniProt P25021); experiment: Displacement of [3H]tiotidine from human H2 receptor expressed in monkey COS7 cells at 1 uM; format: cell-based; details: COS-7

Chain of Histamine H3 receptor (Rattus norvegicus) (Q9QYN8 whole entry): as above

Row | Compound | inhibition [1] [%] | inhibition (Histamine H3 receptor [2]) [%] | inhibition [3] [%] | inhibition (Histamine H3 receptor [4]) [%] | inhibition [5] [%] | inhibition [6] [%] | inhibition [7] [%] | Ki (Histamine H3 receptor [8]) [nM] | inhibition [9] [%] | inhibition [10] [%] | IC50 (Histamine H3 receptor [11]) [nM] | Ki (Histamine H3 receptor [12]) [nM] | inhibition [13] [%]
1 | N#CC(C#N)=C1N(CCN2CCCCC2)CCN1CCN1CCOCC1 | 82 | 69 | 44 | 37 |  |  |  |  |  |  |  |  | 
2 | N#CC(C#N)=C1N(CCN2CCCCC2)CCN1CCN1CCC(O)C1 (racemic) | 86 | 70 | 57 | 49 |  |  |  |  |  |  |  |  | 
3 | N#CC(C#N)=C1N(CCCCN2CCCCC2)CCN1CCCCN1CCCCC1 | 85 | 68 | 51 | 43 |  |  |  |  |  |  |  |  | 
4 | N#CC(C#N)=C1N(CCCCN2CCCCC2)CCN1CCCN1CCCCC1 | 88 | 74 | 65 | 48 |  |  |  |  |  |  |  |  | 
5 | CN1CCN(CCN2CCN(CCN3CCCCC3)C2=C(C#N)C#N)CC1 | 82 | 74 | 43 | 37 |  |  |  |  |  |  |  |  | 
6 | N#CC(C#N)=C1N(CCN2CCCCC2)CCN1CCN1CCCCC1 |  |  |  |  |  |  |  | 24 |  |  |  | 55 | 
7 | CCN(CCCN(C)C)CCN1CCN(Cc2cccc3ccccc23)C1=C(C#N)C#N |  |  |  |  |  |  |  | 83 |  |  |  | 75 | 
8 | N#CC(C#N)=C1N(CCCN2CCCCC2)CCN1Cc1cccc2ccccc12 |  |  |  |  |  |  |  | 36 |  |  |  | 690 | 

The remaining compounds from weak to strong by Ki (Histamine H3 receptor [12]), led by results:

Row | inhibition [1] [%] | inhibition (Histamine H3 receptor [2]) [%] | inhibition [3] [%] | inhibition (Histamine H3 receptor [4]) [%] | inhibition [5] [%] | inhibition [6] [%] | inhibition [7] [%] | Ki (Histamine H3 receptor [8]) [nM] | inhibition [9] [%] | inhibition [10] [%] | IC50 (Histamine H3 receptor [11]) [nM] | Ki (Histamine H3 receptor [12]) [nM] | inhibition [13] [%] | Compound
9 |  |  |  |  |  |  |  | 16 |  |  |  | 8.6 |  | N#CC(C#N)=C1N(CCCCN2CCCCC2)CCN1CCN1CCCCC1
10 |  |  |  |  |  |  |  | 6.6 |  |  |  | 6.3 |  | N#CC(C#N)=C1N(CCCN2CCCCC2)CCN1CCN1CCCCC1
11 |  |  |  |  | 3 | 11 | 21 | 2.4 | -4 | -1 | 28 | 2.6 | -5 | N#CC(C#N)=C1N(CCCN2CCCCC2)CCN1CCCN1CCCCC1
12 |  |  |  |  |  |  |  |  |  |  |  | 1.26 |  | c1cc(OCCCN2CCCCC2)ccc1CN1CCCCC1 [JNJ-5207852]
13 |  |  |  |  | 0 | 9 | -4 | 1.3 | -1 | 8 |  | 1.1 | -7 | C[C@@H]1CCCN1CCN1CCN(CCN2CCC[C@H]2C)C1=C(C#N)C#N
14 |  |  |  |  | -3 | 6 | 7 | 0.47 | -9 | -3 |  | 0.77 |  | C[C@@H]1CCCN1CCN1CCN(CCN2CCC[C@@H]2C)C1=C(C#N)C#N
15 |  |  |  |  | 5 | 2 | 9 | 0.38 | -4 | 6 |  | 0.69 | -8 | CC1CCCN1CCN1CCN(CCN2CCCCC2)C1=C(C#N)C#N (racemic)
16 |  |  |  |  | 10 | -8 | 21 | 0.33 | 0 | -7 | 4.9 | 0.68 | 1 | CC1CCCN1CCN1CCN(CCN2CCCC2C)C1=C(C#N)C#N (racemic)
17 |  |  |  |  | 8 | 9 | 14 | 0.34 | -2 | 0 | 1.9 | 0.48 | 2 | C[C@H]1CCCN1CCN1CCN(CCN2CCC[C@@H]2C)C1=C(C#N)C#N
